{"source": "paper PMC7163137", "about": "“The Pyrimidine Analog FNC Potently Inhibits the Replication of Multiple Enteroviruses” (Journal of Virology, 2020)", "key": {"EV71 [1]": {"system": "EV71", "parameters": "method as in PMID 18279075", "settings": "RD cells, virus-induced CPE assay ref 27; read-out: 50% effective concentration (EC50) against EV71; cited from earlier work"}, "EV71 3D^pol [2]": {"molecular_target": "T1, EV71 3D^pol (Human enterovirus 71, UniProt Q66478)", "T1 construct": "EV71 3D^pol was cloned into the pET28a expression vector with a His tag at the N terminus; His tag (N); made in house; host or cells: E. coli BL21-derived cells", "T1 sequence (Q66478 1732-2193)": "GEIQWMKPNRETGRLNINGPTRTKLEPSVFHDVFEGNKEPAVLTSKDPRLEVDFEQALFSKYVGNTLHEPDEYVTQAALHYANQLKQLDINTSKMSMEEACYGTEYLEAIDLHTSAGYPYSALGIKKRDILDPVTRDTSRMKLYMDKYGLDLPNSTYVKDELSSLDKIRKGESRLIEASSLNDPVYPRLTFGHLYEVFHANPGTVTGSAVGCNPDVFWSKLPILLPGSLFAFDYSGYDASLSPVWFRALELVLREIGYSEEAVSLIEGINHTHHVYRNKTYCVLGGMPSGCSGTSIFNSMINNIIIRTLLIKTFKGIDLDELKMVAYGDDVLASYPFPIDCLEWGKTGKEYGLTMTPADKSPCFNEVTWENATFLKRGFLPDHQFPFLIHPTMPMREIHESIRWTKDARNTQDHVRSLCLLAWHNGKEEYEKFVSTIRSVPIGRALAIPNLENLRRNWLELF", "experiment": "Isothermal titration calorimetry with EV71 3Dpol", "format": "binding", "protocol": "(§1) EV71 3D^pol was cloned into the pET28a expression vector with a His tag at the N terminus and expressed in E. coli BL21-derived cells. The 3D^pol protein was purified by Ni-column affinity chromatography, and a gel filtration column was connected to an ÄKTA system (General Electric Company, CT, USA). The purity of the resulting 3D^pol protein was determined through SDS-PAGE analysis.\nITC experiments were performed by using an ITC200 instrument (MicroCal, Inc., Northampton, MA, USA). The concentration of 3D^pol was 100 μM. FNC was diluted with buffer (pH 7.5, 25 mM HEPES, 100 mM NaCl) to yield a solution of 1.0 mM. The sample cell was filled with 3D^pol protein solution, and FNC was added by syringe at 25°C. The stirring rate was 750 r/min. All data were analyzed using the Origin 7.0 software."}, "[3]": {"system": "EV71, CA16, CA6, CVB3, and EVD68", "experiment": "Antiviral activity against a variety of enteroviruses in RD cells"}, "CA16": {"system": "CA16", "experiment": "Anti-CA16 activity in infected RD cells (RT-qPCR)", "settings": "Enterovirus A, read-out: EC50 for CA16"}, "deoxycytidine kinase": {"system": "deoxycytidine kinase", "parameters": "method as in PMID 18003608", "settings": "substrate for deoxycytidine kinase ref 32; cited from earlier work"}, "EV71 CC063": {"system": "EV71 CC063", "experiment": "Lethal EV71 challenge, neonatal mouse model", "format": "in vivo, ICR neonatal mice", "protocol": "(§2) One-day-old specific pathogen-free (SPF) ICR neonatal mice (Beijing Institute of Radiation Medicine) were used to establish the animal model of viral infection. All welfare and experimental procedures were carried out strictly in accordance with the Guide for the Care and Use of Laboratory Animals and the related ethical regulations of the Beijing Institute of Radiation Medicine. All efforts were made to minimize animal suffering. The neonatal mice were randomly divided into five groups, and each group contained three litters (n = 8 to ∼10 per litter). One group was inoculated intracerebrally with DMEM (10 μl/mouse) and after 1 h injected intraperitoneally with DMSO (control group). Two groups were inoculated intracerebrally with EV71 CC063 (10^5.5 CCID50 ml^−1) and after 1 h injected intraperitoneally with FNC or DMSO. Two groups were inoculated intracerebrally with CA16 CC045 (10^2.7 CCID50 ml^−1) and after 1 h injected intraperitoneally with FNC or DMSO. The survival rates and mean clinical symptoms were monitored daily for 15 days postinfection. The mean clinical symptoms were scored as follows: 0, healthy; 1, lethargy or weakness; 2, wasting; 3, limb tremors; 4, paralysis in hind limb; and 5, moribund or dead. The control mice were healthy throughout the experiments.\n(§3) After intracerebral inoculation with EV71 CC063 viruses, CA16 CC045 viruses, or culture medium, three experimental neonatal mice and three control neonatal mice were subjected to viral load detection. The EV71 infection and control groups were collected on day 9 postinfection, and the CA16 infection and control groups were collected on day 14 postinfection. All tissues, including brain, lung, spine skeletal muscle, and hind-limb muscle, were weighed individually, homogenized in sterile PBS, disrupted by freeze-thawing, and centrifuged. The samples were treated with TRIzol (Invitrogen) for RNA extraction and viral load determination by real-time PCR, as described previously ([42]). Viral loads were determined by real-time PCR and expressed as log10 copies/mg tissue.\nA total of 15 mice were sampled, as follows: three normal mice from the mock-infected group (the clinical score of grade 0), three mice from the EV71-infected and DMSO-treated group (the clinical score of grade 4), three mice from the CA16-infected and DMSO-treated group (the clinical score of grade 3), three mice from the EV71-infected and FNC-treated group (the clinical score of grade 3), and three mice from the CA16-infected and FNC-treated group (the clinical score of grade 1). After the mice were anesthetized, lung, brain, spine skeletal muscle, and hind-limb muscle tissues were harvested and immersion fixed with 10% formaldehyde solution for 5 days. […]"}, "CA16 CC045": {"system": "CA16 CC045", "experiment": "Lethal CA16 challenge, neonatal mouse model", "format": "in vivo, ICR neonatal mice", "protocol": "as §2\nas §3, with “tissue. […]” for “tissue.”"}, "influenza A(H1N1) virus": {"system": "influenza A(H1N1) virus", "experiment": "Anti-influenza A(H1N1) activity in MDCK cells (Western blot, RT-qPCR)", "format": "cell-based"}, "EVD68": {"system": "EVD68", "experiment": "Anti-EVD68 activity in infected RD cells (RT-qPCR)", "settings": "Enterovirus D, read-out: EC50 for EVD68"}, "CA6": {"system": "CA6", "experiment": "Anti-CA6 activity in infected RD cells (RT-qPCR)", "settings": "read-out: EC50 for CA6"}, "RSV": {"system": "RSV", "experiment": "Anti-RSV activity in HEK293T cells (Western blot, RT-qPCR)", "format": "cell-based, respiratory syncytial virus", "settings": "MOI 0.5, 48 h, safe drug concentrations"}, "[4]": {"experiment": "Cytotoxicity, CCK-8 cell viability assay in RD cells", "format": "cell-based, human", "settings": "human", "protocol": "(§4) The cells were treated with various concentrations of compounds dissolved in DMSO for 48 h, and then cell viability was assayed using a Cell Counting kit‑8 (CCK-8; Beyotime, Shanghai, China). In brief, 10 μl of the CCK‑8 solution was added, and the cells were incubated for an additional 2 h. Medium without cells was used as a blank control. Absorbance at a wavelength of 450 nm was measured using a microplate reader. Cell viability was determined as a percentage of that of the control. All cell proliferation assays were performed in triplicate and repeated in three independent experiments."}, "RD cells": {"system": "RD cells", "experiment": "Cytotoxicity, CCK-8 cell viability assay in RD cells", "format": "cell-based, human", "settings": "48 h", "protocol": "as §4"}, "EV71 [5]": {"system": "EV71", "experiment": "Anti-EV71 activity in infected RD cells (Western blot, RT-qPCR, virus titer)"}, "MDCK cells": {"system": "MDCK cells", "experiment": "Cytotoxicity, CCK-8 cell viability assay in MDCK cells", "format": "cell-based", "settings": "48 h", "protocol": "as §4"}, "CVB3": {"system": "CVB3", "experiment": "Anti-CVB3 activity in infected RD cells (RT-qPCR)", "settings": "Enterovirus B, read-out: EC50 for CVB3"}, "EV71 3D^pol [6]": {"molecular_target": "T1, EV71 3D^pol", "experiment": "Fluorescence-based activity assay for EV71 3Dpol", "format": "biochemical", "settings": "poly(A)/UTP, SYTO 9, 30°C", "protocol": "as §1\nWe followed the novel fluorescence-based method for the detection of polymerase activity of EV71 3D^pol ([52]). Reactions were performed in individual wells of black 96-well flat-bottom plates. The standard reaction contained 50 mM Tris-HCl (pH 7.5), 2.5 mM MnCl2, 100 μM UTP, 40 μg/ml poly(A), 0.1 mg/ml bovine serum albumin (BSA), and 0.25 μM SYTO 9. Different concentrations of FNC were added to the reaction mixtures. The assay was initiated by the addition of EV71 3D^pol, and the fluorescence was recorded at 30°C."}, "HEK293T cells": {"system": "HEK293T cells", "experiment": "Cytotoxicity, CCK-8 cell viability assay in HEK293T cells", "format": "cell-based", "settings": "48 h", "protocol": "as §4"}, "[7]": {"settings": "vs DMSO treatment group, P < 0.05"}}, "note": "Like-named read-outs stand apart in the source and are kept apart here.", "data": [{"smiles": "NC(=O)c1ncn([C@@H]2O[C@H](CO)[C@@H](O)[C@H]2O)n1", "note": "[ribavirin]", "values": [{"measurement": "EC50", "setting": "EV71 [1]", "value": 266000, "unit": "nM"}, {"measurement": "interaction with EV71 3Dpol by ITC", "setting": "EV71 3D^pol [2]; ITC, 25°C, 3 mM ribavirin into 100 μM 3Dpol", "value": "failed to observe the interaction"}]}, {"smiles": "[N-]=[N+]=N[C@]1(CO)O[C@@H](n2ccc(N)nc2=O)[C@@H](F)[C@@H]1O", "note": "[FNC, 2'-deoxy-2'-β-fluoro-4'-azidocytidine]", "values": [{"measurement": "virions in the supernatant and viral titers", "setting": "[3]; CA16, CA6, CVB3, EVD68, RD cells", "value": "suppressed by FNC in a dose-dependent manner"}, {"measurement": "positive- and negative-strand EV RNA synthesis (RT-qPCR)", "setting": "[3]; EV71, CA16, CA6, CVB3, EVD68, RD cells, 48 h", "value": "inhibited both positive- and negative-strand EV RNA synthesis"}, {"measurement": "selectivity indices (CC50/EC50) against EVs", "setting": "[3]; RD cells", "value": "good selectivity indices"}, {"measurement": "EC50", "setting": "[3]; RD, read-out: EC50 against a variety of enteroviruses", "value": "1.55 to 52.1", "unit": "nM"}, {"measurement": "suppression of EVs (VP1 protein expression, viral RNA levels, viral titers)", "setting": "[3]; in vitro cell model", "value": "efficiently suppressed"}, {"measurement": "EC50", "setting": "CA16", "value": 52.1, "unit": "nM"}, {"measurement": "phosphorylation efficiency relative to deoxycytidine", "setting": "deoxycytidine kinase", "value": "up to 3 fold"}, {"measurement": "tissue damage, H&E histology", "setting": "EV71 CC063; EV71-infected spinal skeletal muscle and hind-limb muscle", "value": "significantly reduced the damage"}, {"measurement": "mortality", "setting": "EV71 CC063; EV71 CC063 intracerebral, 1-day-old mice, 1 mg/kg i.p. days 1, 3, 6, 9, 12, 15 days", "value": 20, "unit": "%"}, {"measurement": "EV71 viral load in spine skeletal muscle and hind-limb muscle (RT-qPCR)", "setting": "EV71 CC063; [7]", "value": "completely decreased"}, {"measurement": "EV71 viral loads in brain and lung (RT-qPCR)", "setting": "EV71 CC063; [7]", "value": "moderately reduced"}, {"measurement": "tissue damage, H&E histology", "setting": "CA16 CC045; CA16-infected brain, spinal skeletal muscle, hind-limb muscle", "value": "significantly reduced the damage"}, {"measurement": "mortality", "setting": "CA16 CC045; CA16 CC045 intracerebral, 1-day-old mice, 1 mg/kg i.p. days 1, 3, 6, 9, 12, 15 days", "value": 0, "unit": "%"}, {"measurement": "CA16 viral load in all detected tissues (RT-qPCR)", "setting": "CA16 CC045; brain, lung, spine skeletal muscle, hind-limb muscle, vs DMSO, P < 0.05", "value": "completely decreased"}, {"measurement": "effect on H1N1 replication (viral proteins, RNA)", "setting": "influenza A(H1N1) virus", "value": "no inhibitory effect"}, {"measurement": "EC50", "setting": "EVD68", "value": 1.55, "unit": "nM"}, {"measurement": "EC50", "setting": "CA6", "value": 13.4, "unit": "nM"}, {"measurement": "effect on RSV replication (viral proteins, RNA)", "setting": "RSV", "value": "no inhibitory effect"}, {"measurement": "CC50 at 48 h", "setting": "[4]", "value": 3240, "unit": "nM"}, {"measurement": "concentration that did not significantly affect cell viability (safe dose)", "setting": "RD cells", "value": 1000, "unit": "nM"}, {"measurement": "virus titers in supernatants (plaque assay, CPE-based TCID50)", "setting": "EV71 [5]; EV71-infected RD cells, increasing doses", "value": "continuously decreasing virus titers"}, {"measurement": "EC50", "setting": "EV71 [5]; Enterovirus A, EV71, RD, 48 h, read-out: EC50 against EV71, RD cells, from reduced viral RNA level (RT-qPCR), 48 h", "value": 16.9, "unit": "nM"}, {"measurement": "EV71 VP1 protein by Western blot", "setting": "EV71 [5]; RD cells, 100 nM, 48 h postinfection", "value": "could not be detected"}, {"measurement": "anti-EV71 activity, intracellular VP1 protein by Western blot", "setting": "EV71 [5]; RD cells, MOI 0.1, 48 h treatment, 1 μM", "value": "obvious anti-EV71 activity"}, {"measurement": "safe dose", "setting": "MDCK cells", "value": 10, "unit": "µM"}, {"measurement": "Kd", "setting": "EV71 3D^pol [2]", "value": 6000, "unit": "nM"}, {"measurement": "EC50", "setting": "CVB3", "value": 33.8, "unit": "nM"}, {"measurement": "RNA synthesis activity of EV71 3Dpol", "setting": "EV71 3D^pol [6]", "value": "inhibited the RNA synthesis activity of EV71 3D^pol in a dose-dependent manner"}, {"measurement": "safe dose", "setting": "HEK293T cells", "value": 100, "unit": "µM"}]}]}
